Experiment [1] deals with NTHi strain12. In kind it is cell-based, nontypeable Haemophilus influenzae. To be noted: for effect of salt on the growth inhibitory effect against NTHi: 100 mM NaCl in gel. As to the method:
(§1) The bacteria used in the following examples were cultured as follows: Stocks of NTHi12 and M. catarrhalis […] (generous gift of Dr. Xin-Xing Gu) were maintained at -80° C. For experiments, the bacteria were plated on chocolate agar and incubated overnight at 37° C. in 5% CO2. A single colony was then picked and transferred to 10 ml of brain heart infusion (BHI, Becton Dickinson, Cockeysville, Md.), supplemented with hemin (10 μg/ml, Sigma, St. Louis, Mo.) and NAD (10 μg/ml, Sigma, St. Louis, Mo.), and allowed to grow overnight. In the morning, 1/10 volume of the overnight culture was transferred to fresh medium and incubated for 3-hours. The subculture was then washed twice with 10 mM sodium phosphate and the O.D. at 620 nm was determined. For the S. pneumoniae serotypes 3 and 6B (generous gift of Dr. Xin-Xing Gu), a 50 μl aliquot of the -80° C. stock was thawed on ice, added to 10 ml of Todd-Hewitt broth (THB, Becton Dickinson, Cockeysville, Md.) and cultured overnight. One tenth of the volume of the overnight culture was then transferred to fresh medium and incubated for 3-hours. The subculture was then washed twice with 10 mM sodium phosphate and the O.D. at 620 nm was determined. The radial assay method of […] and coworkers was used, with minor modifications ([…] et al., 1991). The subcultured bacteria (4×10^6 CFU/10 ml underlay gel) were mixed with melted underlay gel at 42° C. (0.1×culture broth-BHI for NTHi and Moraxella and THB for S. pneumoniae-10 mM sodium phosphate, 0.8% low electroendosmosis (EEO)-type agarose) and poured into 8 cm×8 cm square petri plates. The gel was allowed to solidify in the petri plates and wells were punched out with a calibrated 200 μl micropipette tip, cut off at the 50 μl mark (approximately 3 mm). The antimicrobial peptides and proteins were dissolved in 0.01% acetic acid and 4 μl was added to each well. The plates were then incubated for 3 hours at 37° C. in the 5% CO2 incubator. They were next overlaid with the overlay gel (0.5×culture broth, 10 mM sodium phosphate, 0.8% low EEO-type agarose) and covered. The plates were then allowed to incubate overnight at 37° C. in a 5% CO2. The diameter of the zones of inhibition produced by each of the antimicrobial molecules against the OM pathogens (NTHi, M. catarrhalis and S. pneumoniae) was then measured in three separate experiments and the average and standard deviation were calculated. Physiologically, salt concentrations vary depending on the site. However, typically they can be as high as 150 mM. Thus, the salt sensitivity of the antimicrobial molecules was tested. NaCl was added to the gel in Example 2 to obtain a final concentration of 100 mM.

For experiment [2], the system named is NTHi. The experiment in a line: ultrastructural analysis (electron microscopy). In kind it is cell-based, nontypeable Haemophilus influenzae. The method, then:
(§2) […] The bacterial pellets were left in the fixative at 4° C. for 2 hr, post-fixed in 2% osmium tetroxide, dehydrated in ethanol and embedded in Eponate 12 (Ted Pella, Redding, Calif.). Sections were mounted in coated specimen grids, contrasted with uranyl acetate and lead citrate and examined in a transmission electron microscope (CM120 BioTwin, FEI-Philips, Hillsboro, Oreg.) operating at 80 kV. Images were recorded on photographic film and were subsequently digitized.

In experiment [3] the test system is S. pneumoniae serotype 3. Kind of experiment: ultrastructural analysis (electron microscopy). To be noted: three-hour treatment. In kind it is cell-based, Streptococcus pneumoniae. As to the method:
(§3) Electron microscopy was performed by treating the bacterial cultures with antimicrobial protein or peptide for 3 hours, mixing with an equal volume of 5% buffered glutaradehyde (pH 7.4) and centrifuging (5000×g, for 20 minutes). The bacterial pellets were left in the fixative at 4° C. for 2 hr, post-fixed in 2% osmium tetroxide, dehydrated in ethanol and embedded in Eponate 12 (Ted Pella, Redding, Calif.). Sections were mounted in coated specimen grids, contrasted with uranyl acetate and lead citrate and examined in a transmission electron microscope (CM120 BioTwin, FEI-Philips, Hillsboro, Oreg.) operating at 80 kV. Images were recorded on photographic film and were subsequently digitized.

In experiment [4] the test system is S. pneumoniae serotype 6B. The experiment in a line: ultrastructural analysis (electron microscopy). In kind it is cell-based, Streptococcus pneumoniae. To be noted: 10 μg/ml, three-hour treatment. The method, then: as §3
Experiment [5] concerns M. catarrhalis strain 035E. In kind it is cell-based, Moraxella catarrhalis. To be noted: for effect of salt on the growth inhibitory effect against M. catarrhalis: 100 mM NaCl in gel; for Diameter of the inhibition zone, M. catarrhalis: no added NaCl, average of 3 experiments ± SD. The method, then: as §1
The subject of experiment [6] is S. pneumoniae serotype 3. It counts as cell-based, Streptococcus pneumoniae. To be noted: for effect of salt on the growth inhibitory effect against S. pneumoniae serotype 3: 100 mM NaCl in gel. As to the method:
as §1

Experiment [7] concerns S. pneumoniae serotype 6B. In kind it is cell-based, Streptococcus pneumoniae. Particulars: for effect of salt on the growth inhibitory effect against S. pneumoniae serotype 6B: 100 mM NaCl in gel. As to the method:
as §1

The subject of experiment [8] is M. catarrhalis. The experiment in a line: ultrastructural analysis (electron microscopy). In kind it is cell-based, Moraxella catarrhalis. The method, then: as §2
For experiment [9], the system named is non-typeable Haemophilus influenzae (NTHi). It counts as cell-based. Particulars: 10 μg/ml. The method, then: The ability of a few of these innate immune mediators: human milk lysozyme (Lz), human β-defensins (HBD) 1 and 2 and human milk lactoferrin (LF) to inhibit the growth of non-typeable Haemophilus influenzae (NTHi) at other concentrations was also investigated using a different type of assay, a colony formation assay. The molecules were tested separately, as well as in combination, and the effect on NTHi growth was determined using a colony formation assay. […] In previous studies, it was shown that the concentration of lysozyme in middle ear effusion can be as high as 3.7 mg/ml and thus the concentrations used in these studies are well within the physiological range. Incubating the bacteria with 10 μg/ml of either human β-defensin 1 or 2 produced an even more pronounced effect, with close to a 95% reduction in the number of colonies. […] For example, the bacteria may be more sensitive to the antimicrobials in a liquid assay, such as the colony forming assay.

The mark [10] stands for this setting: 4 and 10 μg, equivalent to 1 and 2.5 mg/ml.
[11] abbreviates: 40 μg per well, equivalent to 10 mg/ml.

Read-outs that look alike come from different tables or passages of the source. Positions of bridges follow the written chain, without caps; N, C: chain ends. No end group written: not given here.

For the substance “GIGDPVTCLKSGAICHPVFCPRRYKQIGTCGLPGTKCCKKP (disulfide 8-37, 15-30, 20-38) [HBD-2, β-defensin 2]”, in [1], the “effect of salt on the growth inhibitory effect against NTHi” value is listed as “did not inhibit the activity”. Moreover, in experiment [1] (setting [10]), the “effect on growth of NTHi” value is given as “significantly inhibited the growth”. The “ultrastructural changes of NTHi” value in experiment [2] (10 μg/ml, 3 hours) is “blebbing of the membranes with extrusion of the cytoplasmic contents into the blebs”; in experiment [2] (10 μg/ml, 3 hours, listed as human β-defensin 2) it was “Morphological changes were also apparent”. Moreover, in experiment [3] (10 μg/ml), the “ultrastructural changes of S. pneumoniae serotype 3” value is “disappearance of the capsule in certain regions and the lysis of the bacteria”. Moreover, the “ultrastructural changes of S. pneumoniae serotype 6B” value in experiment [4] is “damage to the capsule and condensation of the cytoplasmic material”. For the same substance, the “effect of salt on the growth inhibitory effect against M. catarrhalis” value in [5] is “did not inhibit the activity”. In experiment [5] (setting [10]), the “effect on growth of M. catarrhalis” value is recorded as “significantly inhibited the growth”. Also, in experiment [6], the “effect of salt on the growth inhibitory effect against S. pneumoniae serotype 3” value was “blocked the effect”. Besides, the “effect on growth of S. pneumoniae serotype 3” value in [6] (setting [10]) is on record as “significantly inhibited the growth”. In addition, the “effect of salt on the growth inhibitory effect against S. pneumoniae serotype 6B” value in [7] is “blocked the effect”. Besides, the “effect on growth of S. pneumoniae serotype 6B” value in experiment [7] (setting [10]) is listed as “significantly inhibited the growth”. For the same substance, in experiment [8] (30-minute incubation), the “ultrastructural changes of M. catarrhalis” value is recorded as “substantial damage to the cells”. Besides, in [9], the “reduction in the number of colonies” value is on record as about 95%.

As to human lysozyme [hLz], the “effect of salt on the growth inhibitory effect against NTHi” value in [1] is recorded as “completely blocked”. The “effect on growth of NTHi” value in experiment [1] (dose not given) was “no effect”. The “ultrastructural changes of NTHi” value in experiment [2] (100 μg/ml, 3 hour) is given as “Few completely lysed bacteria were observed”; in experiment [2] (100 μg/ml, 3 hour, listed as human milk lysozyme), “extrusion of the outer membrane could clearly be seen”; in [2] (1 mg/ml, 3 hour), “blebbing of the membranes with extrusion of the cytoplasmic contents into the blebs”. Moreover, the “ultrastructural changes of NTHi, one hour compared with 3 hours” value in experiment [2] (one hour treatment) is reported as “similar”. In addition, in experiment [3] (1 mg/ml), the “ultrastructural changes of S. pneumoniae serotype 3” value is on record as “many fewer bacteria appear to be lysed”. In experiment [5] (40 μg in 4 μl per well), the “Diameter of the inhibition zone, M. catarrhalis” value was found to be 4 ± 1.7 mm. In [5] (setting [11]), the “effect on growth of M. catarrhalis” value is “slight but visible inhibition”. Further, the “effect of salt on the growth inhibitory effect against M. catarrhalis” value in experiment [5] is recorded as “completely blocked”. Moreover, in experiment [6], the “effect of salt on the growth inhibitory effect against S. pneumoniae serotype 3” value was “completely blocked”. In addition, the “effect on growth of S. pneumoniae serotype 3” value in [6] (dose not given) is “appeared to enhance the growth”. For the same substance, the “Diameter of the inhibition zone, S. pneumoniae 6B” value in experiment [7] (40 μg in 4 μl per well, no added NaCl, average of 3 experiments ± SD) worked out at 5 ± 1.7 mm. Also, in [7] (setting [11]), the “effect on growth of S. pneumoniae serotype 6B” value is “slight but visible inhibition”. The “effect of salt on the growth inhibitory effect against S. pneumoniae serotype 6B” value in experiment [7] is listed as “completely blocked”. In addition, the “ultrastructural changes of M. catarrhalis” value in experiment [8] (1-minute treatment) is recorded as “formation of blebs”.

On to “β-defensin 1 (GNFLTGLGHRSDHYNCVSSGGQCLYSACPIFTKIQGTCYRGKAKCCK; not fully specified; cysteine pairing not given here) [HBD-1, human beta defensin 1, cationic antimicrobial peptide produced by epithelial cells]”, for which, in experiment [1], the “effect of salt on the growth inhibitory effect against NTHi” value is “completely blocked”. Further, in [2] (10 μg/ml, 3 hours), the “ultrastructural changes of NTHi” value is recorded as “Morphological changes were also apparent”. The “Diameter of the inhibition zone, M. catarrhalis” value in experiment [5] (10 μg in 4 μl per well) was 7.7 ± 0.6 mm. Further, the “effect of salt on the growth inhibitory effect against M. catarrhalis” value in experiment [5] is recorded as “completely blocked”. In addition, the “effect on growth of M. catarrhalis” value in [5] (high dose, 10 μg, equivalent to 2.5 mg/ml) is “effective”. The “effect of salt on the growth inhibitory effect against S. pneumoniae serotype 3” value in [6] is given as “completely blocked”. Moreover, in experiment [7], the “effect of salt on the growth inhibitory effect against S. pneumoniae serotype 6B” value is “completely blocked”. Besides, the “reduction in the number of colonies” value in experiment [9] is about 95%.

The record behind these values is patent publication US6716813B2, “Use of antimicrobial proteins and peptides for the treatment of otitis media and paranasal sinusitis” (priority 2000, dated 2004).
